This is an account of results in article PMC4834642, “Orthogonal ring-closing alkyne and olefin metathesis for the synthesis of small GTPase-targeting bicyclic peptides” (Nature Communications, 2016).

One data set addresses T1, Rab8a6-176(GppNHp) (Homo sapiens, UniProt P61006).
T1 construct: Expression and purification of Rab8a6-176 was performed analog to full-length Rab8a; made in house
T1 sequence (P61006 6-176): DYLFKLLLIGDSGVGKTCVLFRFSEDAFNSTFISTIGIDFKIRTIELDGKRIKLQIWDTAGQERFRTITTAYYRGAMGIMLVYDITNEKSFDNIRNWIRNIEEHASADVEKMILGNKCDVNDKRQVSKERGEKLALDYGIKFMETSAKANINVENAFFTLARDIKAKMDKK
As to the kind of experiment: Fluorescence polarization (FP) binding assay of fluorescein-labelled peptides. Conditions: for Rel. Kd (Kd [Peptide]/Kd [StRIP3]) / Kd: FP, fluorescein-PEG labelled peptide 66 nM, 4 h room temperature, 25 mM HEPES pH 7.5; for Rel. Kd (Kd [Peptide]/Kd [StRIP3]): Kd values are single point measurements (n = 1); for Kd: average of triplicate measurements, errors 1σ. The procedure: Rab8a6–176(GppNHp) was serially diluted in a buffer containing 25 mM HEPES (pH 7.5), 150 mM NaCl, 1 mM MgCl2, 1 mM TCEP, 0.01% Tween 20 and 1 μM GppNHp, treated with 66 nM fluorescein-labelled peptides and incubated for 4 h at room temperature. Fluorescence polarization values (λex=470 nm, λem=525 nm) were determined at room temperature. Initial studies for alkyne macrocyclized peptides were performed as single measurements. Final affinity measurements of a subset of peptides were performed in triplicates. After correction for changes in fluorescence intensity upon binding, the fluorescence anisotoropy data were converted into fraction bound of the FITC-labelled peptide and fitted to a one-site binding model derived from the law of mass action using Kd as the only fitting parameter (for details, see Supplementary Methods)[63]. Nonlinear regression was performed in Prism 5.0 (Graphpad)[64]. […]
using a PD-10 desalting column Sephadex G-25 DNA Grade (GE Healthcare) with elution buffer consisting of 20 mM HEPES (pH 7.5), 50 mM NaCl, 1 mM TCEP. After removal of Mg2+ the protein was diluted to 80 - 100 µM before addition of ZnCl2 (500 µM) and (NH4)2SO4 (200 mM). After addition of alkaline phosphatase (5 U mg-1 Rab protein) the mixture was incubated for 16 h at 4°C. For nucleotide exchange, the mixture contained a 5-fold excess of GppNHp during alkaline phosphatase incubation. Afterwards, the mixture was desalted using a PD-10 desalting column Sephadex G-25 DNA Grade (GE Healthcare) with elution buffer consisting of 25 mM HEPES (pH 7.5) 150 mM NaCl, 1 mM TCEP, 1 mM MgCl2 and 1 µM GppNHp.
Fluorescence polarization assay for the determination of dissociation […]
Rab8a6-176 was serially diluted in a buffer containing 25 mM HEPES (pH 7.5), 150 mM NaCl, 1 mM MgCl2, 1 mM TCEP, 0.01% tween 20 and 1 µM GppNHp (assay buffer), treated with 66 nM fluorescein-labeled peptides and incubated for 4 h at room temperature. Binding assays were performed in 384-well, small volume, black flat-bottom, non-binding plates (Greiner). Fluorescence polarization values (λex = 470 nm, λem = 525 nm) were determined using a Safire II plate reader (Tecan) at room temperature. Initial studies for alkyne macrocyclized peptides were performed as single measurements. Final affinity measurements of a subset of peptides were performed in triplicates. After correction for changes in fluorescence intensity upon binding, the fluorescence anisotoropy data were converted into fraction bound (Supplementary equation 1) of the FITC- labeled peptide and fitted to a one-site binding model derived from the law of mass action using Kd as the only fitting parameter (Supplementary equation 2).4 In case of incomplete binding due to the limited solubility of Rab proteins, anisotropy top-values were extrapolated and constrained as indicated below. Non-linear regression was performed in Prism 5.0 […]
(Supplementary equation 1)
A: observed anisotropy; Afree: anisotropy of free fluorophore; Abound: anisotoropy of bound fluorophore; Q: change in fluorescence intensity between free and bound state […]
(Supplementary equation 2)
Kd: dissociation constant; LT: total concentration of labeled peptide; cRab: protein concentration Microscale Thermophoresis (MST)
(Polarisation of emitted light reports the rotation of a fluorescent probe.)

Data set [1] in a line: On-resin ring-closing alkyne metathesis (RCAM), alpha-methyl-alpha-alkynyl residues at i,i+4, Mo alkylidyne complex 5 (2 mg/mL, 2 x 0.5 mL), Ar bubbling to remove 2-butyne; bicyclic entries (24-29) additionally closed by RCM (Grubbs I). Particulars: the molecule shown is the open-chain precursor, toluene, 40.0 °C, 3.0 h.

As a reminder, the Kd is the concentration at which binding is half-saturated. Low values mean higher affinity, high ones lower affinity.

Structures are written as SMILES. Bridge positions count the residues as written; N and C are the ends. Square brackets hold non-standard residues; d marks the D form. Peptide text beside a SMILES is read from it. * marks the point of attachment. FITC = O=C1OC2(c3ccc(O)cc3Oc3cc(O)ccc32)c2ccc(NC(=S)*)cc21; S5 = C=CCCC[C@](C)(N)C(=O)O; AEEA = NCCOCCOCC(=O)O

Turning to `CC(C)C[C@H](NC(=O)[C@H](Cc1c[nH]cn1)NC(=O)[C@H](Cc1ccc(O)cc1)NC(=O)[C@]1(C)CCCCC#CCCC[C@](C)(NC(=O)[C@H](CCC(=O)O)NC(=O)[C@H](CC(=O)O)NC(=O)[C@H](CC(=O)O)NC(=O)COCCOCCNC(=S)Nc2ccc3c(c2)C(=O)OC32c3ccc(O)cc3Oc3cc(O)ccc32)C(=O)N[C@@H](CCC(=O)O)C(=O)N[C@@H](CCC(N)=O)C(=O)N[C@@H](Cc2ccccc2)C(=O)N1)C(=O)N[C@@]1(C)CCC/C=C\CCC[C@@](C)(C(=O)N[C@H](C(N)=O)C(C)C)NC(=O)[C@H](CC(N)=O)NC(=O)[C@H](Cc2ccccc2)NC(=O)[C@H](CO)NC1=O` [compound 28], the “Rel. Kd (Kd [Peptide]/Kd [StRIP3])” value at Rab8a6-176(GppNHp) is 0.42.

In data set [1] (22-membered ring), `CC#CCCCC[C@](C)(NC(=O)[C@H](CCC(=O)OC(C)(C)C)NC(=O)[C@H](CC(=O)OC(C)(C)C)NC(=O)[C@H](CC(=O)OC(C)(C)C)NC(=O)OCC1c2ccccc2-c2ccccc21)C(=O)N[C@@H](CCC(=O)OC(C)(C)C)C(=O)N[C@@H](CCC(=O)NC(c1ccccc1)(c1ccccc1)c1ccccc1)C(=O)N[C@@H](Cc1ccccc1)C(=O)N[C@@](C)(CCCC#CC)C(=O)N[C@@H](Cc1ccc(OC(C)(C)C)cc1)C(=O)N[C@@H](Cc1cn(C(c2ccccc2)(c2ccccc2)c2ccccc2)cn1)C(=O)N[C@@H](CC(C)C)C(=O)N[C@@H](CC(C)C)C(=O)N[C@@H](COC(C)(C)C)C(=O)N[C@@H](Cc1ccccc1)C(=O)N[C@@H](CC(=O)NC(c1ccccc1)(c1ccccc1)c1ccccc1)C(=O)N[C@@H](C)C(=O)N[C@H](C(N)=O)C(C)C` displayed a ring closure, overall yield of 23%. With `CC#CCCCC[C@](C)(NC(=O)[C@H](Cc1ccccc1)NC(=O)[C@H](CCC(=O)NC(c1ccccc1)(c1ccccc1)c1ccccc1)NC(=O)[C@H](CCC(=O)OC(C)(C)C)NC(=O)[C@](C)(CCCC#CC)NC(=O)[C@H](CCC(=O)OC(C)(C)C)NC(=O)[C@H](CC(=O)OC(C)(C)C)NC(=O)[C@H](CC(=O)OC(C)(C)C)NC(=O)OCC1c2ccccc2-c2ccccc21)C(=O)N[C@@H](Cc1ccc(OC(C)(C)C)cc1)C(=O)N[C@@H](Cc1cn(C(c2ccccc2)(c2ccccc2)c2ccccc2)cn1)C(=O)N[C@@H](CC(C)C)C(=O)N[C@@H](CC(C)C)C(=O)N[C@@H](COC(C)(C)C)C(=O)N[C@@H](Cc1ccccc1)C(=O)N[C@@H](CC(=O)NC(c1ccccc1)(c1ccccc1)c1ccccc1)C(=O)N[C@@H](C)C(=O)N[C@H](C(N)=O)C(C)C`, in data set [1] (22-membered ring), the ring closure, overall yield stood at 12%.

`CC#CCCCC[C@](C)(NC(=O)[C@H](Cc1ccccc1)NC(=O)[C@H](CCC(=O)NC(c1ccccc1)(c1ccccc1)c1ccccc1)NC(=O)[C@H](CCC(=O)OC(C)(C)C)NC(=O)[C@](C)(CCCCC#CC)NC(=O)[C@H](CCC(=O)OC(C)(C)C)NC(=O)[C@H](CC(=O)OC(C)(C)C)NC(=O)[C@H](CC(=O)OC(C)(C)C)NC(=O)OCC1c2ccccc2-c2ccccc21)C(=O)N[C@@H](Cc1ccc(OC(C)(C)C)cc1)C(=O)N[C@@H](Cc1cn(C(c2ccccc2)(c2ccccc2)c2ccccc2)cn1)C(=O)N[C@@H](CC(C)C)C(=O)N[C@@H](CC(C)C)C(=O)N[C@@H](COC(C)(C)C)C(=O)N[C@@H](Cc1ccccc1)C(=O)N[C@@H](CC(=O)NC(c1ccccc1)(c1ccccc1)c1ccccc1)C(=O)N[C@@H](C)C(=O)N[C@H](C(N)=O)C(C)C`: the ring closure, overall yield in data set [1] (23-membered ring) turned out to be 16%. `CC#CCCC[C@](C)(NC(=O)[C@H](Cc1ccccc1)NC(=O)[C@H](CCC(=O)NC(c1ccccc1)(c1ccccc1)c1ccccc1)NC(=O)[C@H](CCC(=O)OC(C)(C)C)NC(=O)[C@](C)(CCCC#CC)NC(=O)[C@H](CCC(=O)OC(C)(C)C)NC(=O)[C@H](CC(=O)OC(C)(C)C)NC(=O)[C@H](CC(=O)OC(C)(C)C)NC(=O)OCC1c2ccccc2-c2ccccc21)C(=O)N[C@@H](Cc1ccc(OC(C)(C)C)cc1)C(=O)N[C@@H](Cc1cn(C(c2ccccc2)(c2ccccc2)c2ccccc2)cn1)C(=O)N[C@@H](CC(C)C)C(=O)N[C@@H](CC(C)C)C(=O)N[C@@H](COC(C)(C)C)C(=O)N[C@@H](Cc1ccccc1)C(=O)N[C@@H](CC(=O)NC(c1ccccc1)(c1ccccc1)c1ccccc1)C(=O)N[C@@H](C)C(=O)N[C@H](C(N)=O)C(C)C` yielded a ring closure, overall yield in data set [1] (21-membered ring) of 0%. `CC(C)C[C@H](NC(=O)[C@H](CC(C)C)NC(=O)[C@H](Cc1c[nH]cn1)NC(=O)[C@H](Cc1ccc(O)cc1)NC(=O)[C@]1(C)CCCCC(Br)=C(Br)CCCC[C@](C)(NC(=O)[C@H](CCC(=O)O)NC(=O)[C@H](CC(=O)O)NC(=O)[C@H](CC(=O)O)NC(=O)COCCOCCNC(=S)Nc2ccc3c(c2)C(=O)OC32c3ccc(O)cc3Oc3cc(O)ccc32)C(=O)N[C@@H](CCC(=O)O)C(=O)N[C@@H](CCC(N)=O)C(=O)N[C@@H](Cc2ccccc2)C(=O)N1)C(=O)N[C@@H](CO)C(=O)N[C@@H](Cc1ccccc1)C(=O)N[C@@H](CC(N)=O)C(=O)N[C@@H](C)C(=O)N[C@H](C(N)=O)C(C)C` [peptide 21]: the “Increase in binding affinity compared with StRIP3” value on Rab8a6-176(GppNHp) (FP Kd, Rab8a6-176(GppNHp)) was 2 fold. In addition, at Rab8a6-176(GppNHp), the “Rel. Kd (Kd [Peptide]/Kd [StRIP3])” value was determined as 0.40 and the affinity, expressed as Kd, was 10.7 ± 0.5 µM. With `CC(C)C[C@H](NC(=O)[C@H](CC(C)C)NC(=O)[C@H](Cc1c[nH]cn1)NC(=O)[C@H](Cc1ccc(O)cc1)NC(=O)[C@]1(C)CCC/C=C\CCC[C@](C)(NC(=O)[C@H](CCC(=O)O)NC(=O)[C@H](CC(=O)O)NC(=O)[C@H](CC(=O)O)NC(=O)COCCOCCNC(=S)Nc2ccc3c(c2)C(=O)OC32c3ccc(O)cc3Oc3cc(O)ccc32)C(=O)N[C@@H](CCC(=O)O)C(=O)N[C@@H](CCC(N)=O)C(=O)N[C@@H](Cc2ccccc2)C(=O)N1)C(=O)N[C@@H](CO)C(=O)N[C@@H](Cc1ccccc1)C(=O)N[C@@H](CC(N)=O)C(=O)N[C@@H](C)C(=O)N[C@H](C(N)=O)C(C)C` [StRIP3] ({FITC-AEEA}-DDE[S5]EQF[S5]YHLLSFNAV-NH2; staple (Z) 4-8; C-terminus assumed), at Rab8a6-176(GppNHp), the “Rel. Kd (Kd [Peptide]/Kd [StRIP3])” value turned out to be 1.00 and the Kd is 20.7 ± 0.7 µM.
